Experimental data: US7732618B2, “Benzimidazole acetic acids exhibiting CRTH2 receptor antagonism and uses thereof” (Wyeth, priority 2004, dated 2010)

Legend:
human CRTH2 [1] = target: T1, human CRTH2 (Homo sapiens, UniProt Q9Y5Y4); assay: CRTH2 fluorescent imaging assay (intracellular calcium); assay type: cell-based; parameters: expressed in transfected cells; host or cells: HEK 293EBNA-hCRTH2 cells or HT1080-hCRTH2 cells; conditions: for IC50: antagonism of PGD2-induced calcium increase, HEK 293EBNA-hCRTH2 or HT1080-hCRTH2 cells, read-out: RAGE hCRTH2 IC50; for approximate EC75 for PGD2: calcium response
T1 sequence (Q9Y5Y4 1-395): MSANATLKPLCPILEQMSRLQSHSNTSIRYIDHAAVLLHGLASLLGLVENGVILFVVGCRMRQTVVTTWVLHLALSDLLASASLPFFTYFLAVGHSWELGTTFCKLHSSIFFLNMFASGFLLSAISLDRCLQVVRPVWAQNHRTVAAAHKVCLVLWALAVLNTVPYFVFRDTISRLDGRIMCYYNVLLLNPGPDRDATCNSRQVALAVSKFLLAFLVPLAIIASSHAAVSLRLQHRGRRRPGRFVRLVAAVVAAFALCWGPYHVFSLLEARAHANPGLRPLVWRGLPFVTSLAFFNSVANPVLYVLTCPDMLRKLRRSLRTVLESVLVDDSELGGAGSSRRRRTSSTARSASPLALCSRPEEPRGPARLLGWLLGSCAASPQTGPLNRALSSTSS
Method: The ability of the disclosed compounds to act as agonists for the hCRTH2 receptor was determined by their ability to cause increases in intracellular calcium via binding to the CRTH2 receptor.
Assays were performed on HEK 293EBNA-hCRTH2 cells that had been grown in DMEM media containing 10% FBS, […] puromycin and 1% penicillin/streptomycin/glutamine (PSG) at 37° C. in 5% CO2 or on HT1080-hCRTH2 cells (a HT1080 cell line stably expressing human CRTH2) that had been grown in alphaMEM media containing 10% FBS, 500 μg/ml hygromycin, 200 nM methotrexate and 1% PSG at 37° C. in 5% CO2.
For the assay, HEK 293EBNA-hCRTH2 cells or HT1080-hCRTH2 cells were grown to approximately 90% confluency and then dislodged from the plate with Trypsin-EDTA, resuspended in DMEM media, seeded in 384 well plates at 2×10^4 cells per well and incubated overnight at 37° C. The cells were loaded with a calcium sensing dye by removing the growth media and replacing it with 30 μL of dye loading Ringer's buffer (136 mM […], 5.4 mM D-Glucose, 20 mM Hepes pH 7.4, 2.1 mM MgCl2, 0.8 mM CaCl2, 0.2% BSA with 1× Calcium3Dye (Molecular Devices) and 2.5 mM Probenecid (Sigma)) per well. The cells were incubated at 37° C. for 1 hour to allow the dye to enter the cells. Compounds were serially diluted in DMSO and then diluted to 4× their final concentration with Ringer's buffer. The compounds were added to a 384 well plate in quadruplicate. In addition to test compounds, several wells contained Ringer's buffer with DMSO. These wells serve as control wells. 10 μL was transferred from compound/control plate to the plate containing cells loaded with dye by a fluorescent imaging plate reader (Molecular Devices). The fluorescence was measured every 4 seconds for 4 minutes. These measurements indicated the level of intracellular calcium. Increases in fluorescence relative to wells containing buffer only indicated an agonist effect of the compound. Measurement at various compound concentrations allowed one to determine the EC50 for these compounds. Following the 4 minute incubation with compound, 20 μL of Ringer's buffer with either 10 nM or 500 nM PGD2 (approximate EC75 for PGD2 in HEK 293EBNA-hCRTH2 cells and HT1080-hCRTH2 cells, respectively) was added to the wells. Inhibition by the compounds of the calcium response due to antagonism of PGD2 action on CRTH2 is reflected by a decrease in fluorescent signal relative to wells containing no compound. The fluorescence was measured every 2 seconds for 10 seconds before addition of PGD2 and every 2 seconds for 110 seconds following addition. Measurement at various compound concentrations allowed one to determine the IC50 for the compounds. EC50 and IC50 values were determined from the experimental results by nonlinear regression using the Prism 4.0 software.

human CRTH2 [2] = target: T1, human CRTH2; assay: CRTH-2 binding assay (scintillation proximity assay, inhibition of 3H-PGD2 binding); parameters: expressed in transfected cells; host or cells: 293EBNA-hCRTH2 cells (membrane preparation); conditions: membranes from 293EBNA-hCRTH2 cells, 3H-PGD2 3.6 nM; Ki calculated from IC50
Method: A CRTH2 binding assay was developed to measure the ability of compounds to inhibit the binding of PGD2 to human CRTH2 using a scintillation proximity assay.
Membranes containing hCRTH2 receptors were prepared from 293EBNA-hCRTH2 cells (a 293EBNA cell line stably expressing human CRTH2). The cells were grown to confluency, harvested and washed with PBS. The cells were resuspended in 10 mM Hepes pH 7.4, 1 mM EDTA and protease inhibitors and incubated for 30 min on ice. The cells were homogenized and centrifuged for 10 min at 1000×g. The supernate was centrifuged for 30 min at 100,000×g and the membrane pellet was then resuspended in 10 mM Hepes pH 7.4 and 1 mM EDTA. The protein concentration of the membrane preparation was determined by Bradford assay (Bio-Rad).
The ability of compounds to inhibit the interaction of PGD2 to human CRTH2 was determined at seven compound concentrations. Compounds were serially diluted in DMSO then diluted into CRTH2 buffer (10 mM Hepes pH 7.4, 1 mM EDTA, 10 mM MnCl2) to six times the final desired concentration. 20 μL of the diluted compounds were transferred into non-surface binding 96-well plates (Corning). Each concentration was done in triplicate. In addition to test compounds, each plate contained 12 control wells. Six of these wells contained 20 μL of CRTH2 buffer. These wells were used to measure total binding. Six wells contained 20 μL of CRTH2 buffer plus 1.5 mM indomethacin. These wells were used to measure non-specific binding. Next, 293EBNA-hCRTH2 membranes were resuspended in CRTH2 buffer with glycerol (10 mM Hepes pH 7.4, 1 mM EDTA, 10 mM MnCl2, 25% glycerol) so that the final concentration was approximately 20 μg/100 μL. Polylysine-coated yttrium silicate SPA beads (Amersham) were added to the membrane mix to a concentration of 0.4 mg/100 μL and finally ^3H-PGD2 was added to the membrane/SPA bead mix to 3.6 nM. 100 μL of the membrane/SPA bead/^3H-PGD2 mix was added to each well of the non-surface binding plates containing the diluted compound or controls. The plates were incubated for 2 hours at room temperature with shaking and then the plates were counted on a Microbeta scintillation counter (Perkin Elmer) for 1 min per well.
IC50 values were determined from the experimental results by nonlinear regression using Prism 4.0 software. The IC50 values were then used in conjunction with the Kd for hCRTH2 and the ^3H-PGD2 concentration used in the experiment to calculate the Ki for each compound.

IC50 (human CRTH2 [1])	Ki (human CRTH2 [2])	SMILES	approximate EC75 for PGD2 (human CRTH2 [1]; HEK 293EBNA-hCRTH2 cells)	approximate EC75 for PGD2 (human CRTH2 [1]; HT1080-hCRTH2 cells)
51 nM	< 100 nM	CCCc1nc2cc(N(Cc3ccc(Cl)cc3)S(=O)(=O)c3ccc(F)cc3)ccc2n1CC(=O)O [Example 43, {5-[(4-Chloro-benzyl)-(4-fluoro-benzenesulfonyl)-amino]-2-propyl-benzoimidazol-1-yl}-acetic acid]	–	–
47 nM	< 100 nM	CCCc1nc2cc(N(CCCOc3ccccc3)S(=O)(=O)c3ccc(F)cc3)ccc2n1CC(=O)O [Example 49, {5-[(4-Fluoro-benzenesulfonyl)-(3-phenoxy-propyl)-amino]-2-propyl-benzoimidazol-1-yl}-acetic acid]	–	–
7 nM	< 100 nM	CCCc1nc2cc(N(Cc3ccccc3)C(=O)c3cccs3)ccc2n1CC(=O)O [Example 70, {5-[Benzyl-(thiophene-2-carbonyl)-amino]-2-propyl-benzoimidazol-1-yl}-acetic acid]	–	–
–	–	CCCCC[C@H](O)/C=C/[C@H]1C(=O)C[C@H](O)[C@@H]1C/C=C\CCCC(=O)O [PGD2, prostaglandin D2, reference compound]	~10 nM	~500 nM
22 nM	< 100 nM	CCCc1nc2cc(N(CCOc3ccc(Cl)cc3)S(=O)(=O)c3ccc(F)cc3)ccc2n1CC(=O)O [Example 47, {5-[[2-(4-Chloro-phenoxy)-ethyl]-(4-fluoro-benzenesulfonyl)-amino]-2-propyl-benzoimidazol-1-yl}-acetic acid]	–	–
–	< 100 nM	CCCc1nc2cc(N(Cc3ccc(OC(F)(F)F)cc3)S(=O)(=O)c3ccc(F)cc3)ccc2n1CC(=O)O [Example 53, {5-[(4-Trifluoromethoxy-benzyl)-(4-fluoro-benzenesulfonyl)-amino]-2-propyl-benzoimidazol-1-yl}-acetic acid]	–	–
–	< 1000 nM	CCCc1nc2cc(N(Cc3ccccc3)C(=O)c3ccc(F)cc3)ccc2n1CC(=O)O [Example 66, {5-[Benzyl-(4-fluoro-benzoyl)-amino]-2-propyl-benzoimidazol-1-yl}-acetic acid]	–	–
–	< 1000 nM	CCCc1nc2cc(N(Cc3ccccc3)C(=O)c3ccc(Cl)cc3)ccc2n1CC(=O)O [Example 63, {5-[Benzyl-(4-chloro-benzoyl)-amino]-2-propyl-benzoimidazol-1-yl}-acetic acid]	–	–
–	< 100 nM	CCCc1nc2cc(N(Cc3cccc(Cl)c3)S(=O)(=O)c3ccc(F)cc3)ccc2n1CC(=O)O [Example 42, {5-[(3 -Chloro-benzyl)-(4-fluoro-benzenesulfonyl)-amino]-2-propyl-benzoimidazol-1-yl}-acetic acid]	–	–
–	< 1000 nM	CCCc1nc2cc(N(Cc3cccc(C(F)(F)F)c3)S(=O)(=O)c3ccc(F)cc3)ccc2n1CC(=O)O [Example 51, {5-[(4-Fluoro-benzenesulfonyl)-(3-trifluoromethyl-benzyl)-amino]-2-propyl-benzoimidazol-1-yl}-acetic acid]	–	–
375 nM	< 1000 nM	CCCc1nc2cc(N(C3CCCCC3)S(=O)(=O)c3ccc(F)cc3)ccc2n1CC(=O)O [Example 46, {5-[(Cyclohexyl)-(4-fluoro-benzenesulfonyl)-amino]-2-propyl-benzoimidazol-1-yl}-acetic acid]	–	–
–	< 100 nM	CCCc1nc2cc(N(Cc3ccccc3)C(=O)c3sccc3C)ccc2n1CC(=O)O [Example 69, {5-[Benzyl-(3-methyl-thiophene-2-carbonyl)-amino]-2-propyl-benzoimidazol-1-yl}-acetic acid]	–	–
